# Assay results as given in US20240287138A1, “CYCLIC PEPTIDES FOR INHIBITING TNF RECEPTOR 1 ACTIVITY” (Merck Sharp & Dohme LLC, priority 2023, published 2024).
# Numbered stars: 1 amine (or outer) side, 2 acyl side, 3 side chain; on linkers, the order of the positions; unused ones are H or OH. Bridge positions count the residues as written; N and C are the ends. Square brackets hold non-standard residues; d marks the D form. Peptide text beside a SMILES is read from it. * marks the point of attachment. Trp(7-aza,1-CH2COOH) = N[C@@H](Cc1cn(CC(=O)O)c2ncccc12)C(=O)O; Trp(βS-Me,7-OMe) = COc1cccc2c([C@H](C)[C@H](N)C(=O)O)c[nH]c12; Trp(1-CH2COOH) = N[C@@H](Cc1cn(CC(=O)O)c2ccccc12)C(=O)O; Trp(βS-Me) = C[C@@H](c1c[nH]c2ccccc12)[C@H](N)C(=O)O; Phe(2-F,4-COOH) = N[C@@H](Cc1ccc(C(=O)O)cc1F)C(=O)O; dPro(trans-4-NMe2) = CN(C)[C@@H]1CN[C@@H](C(=O)O)C1; Trp(7-CN) = N#Cc1cccc2c(C[C@H](N)C(=O)O)c[nH]c12; Trp(7-Cl) = N[C@@H](Cc1c[nH]c2c(Cl)cccc12)C(=O)O; Biotin = O=C1N[C@H]2[C@H](CS[C@H]2CCCCC(=O)*)N1; Phe(3-COOH) = N[C@@H](Cc1cccc(C(=O)O)c1)C(=O)O; Phe(4-CONH2) = NC(=O)c1ccc(C[C@H](N)C(=O)O)cc1; Phe(4-COOH) = N[C@@H](Cc1ccc(C(=O)O)cc1)C(=O)O; 4Pal(3S-Me) = C[C@@H](c1ccncc1)[C@H](N)C(=O)O; Trp(7-aza) = N[C@@H](Cc1c[nH]c2ncccc12)C(=O)O; Tyr(3-OMe) = COc1cc(C[C@H](N)C(=O)O)ccc1O; X66 = O=C([C@@H](N[*:1])c1cccc(O)c1)[*:2]; Lys(Me3) = C[N+](C)(C)CCCC[C@H](N)C(=O)O; Pip(5R-OH) = O=C(O)[C@@H]1CC[C@@H](O)CN1; X1 = O=C([C@@H]1CC[C@H](N[*:1])C1)[*:2]; X42 = C[C@@H](CO)N(CC(=O)[*:2])[*:1]; Pip(4-aza) = O=C(O)[C@@H]1CNCCN1; 4Pal = N[C@@H](Cc1ccncc1)C(=O)O; NMeE = CN[C@@H](CCC(=O)O)C(=O)O; dHyp = O=C(O)[C@H]1C[C@H](O)CN1; Ahp(2) = CCCCC[C@H](N)C(=O)O; Pip = O=C(O)[C@@H]1CCCCN1; αMeS = C[C@](N)(CO)C(=O)O; NMeA = CN[C@@H](C)C(=O)O; Nle = CCCC[C@H](N)C(=O)O; AEA = NCCOCC(=O)O; Sar = CNCC(=O)O
# Molecular target: T1, TNFα-induced NF-κB signal transduction pathway (TNFR1 signaling) in THP-1 cells (Homo sapiens, UniProt P19438)
# T1 sequence (P19438 30-455): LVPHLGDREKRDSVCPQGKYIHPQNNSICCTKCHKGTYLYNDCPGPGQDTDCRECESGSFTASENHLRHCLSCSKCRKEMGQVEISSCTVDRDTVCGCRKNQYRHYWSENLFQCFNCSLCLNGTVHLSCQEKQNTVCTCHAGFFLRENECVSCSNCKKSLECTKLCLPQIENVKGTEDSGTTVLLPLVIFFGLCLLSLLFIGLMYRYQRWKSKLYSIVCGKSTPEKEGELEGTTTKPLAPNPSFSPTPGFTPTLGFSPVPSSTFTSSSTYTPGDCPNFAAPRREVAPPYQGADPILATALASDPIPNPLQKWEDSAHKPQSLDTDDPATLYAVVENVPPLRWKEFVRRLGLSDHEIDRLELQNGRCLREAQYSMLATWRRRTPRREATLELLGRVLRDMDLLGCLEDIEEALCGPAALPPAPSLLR
# Experiment: THP-1 Lucia NF-κB reporter cell assay, inhibition of TNFα-induced NF-κB signaling
# Type: cell-based
# Settings: THP-1 NF-κB Lucia reporter cells, 10 ng/mL TNFα, 16-18 h, secreted luciferase; read-out: THP-1 IC50
# Method: C. Procedure for THP-1 Lucia NF-κB cells
# The inhibition of TNFα-induced NF-κB signal transduction pathways was evaluated in THP-1 cells. THP-1 cells harboring NF-κB-inducible Lucia™ reporter gene (InvivoGen, cat. #thp1-nfkb) designed for monitoring NF-κB signal transduction pathway was employed to assess the inhibitory effect macrocyclic peptides on TNFR1 signaling. The cells were cultured in media containing RPMI 1640, 2 mM L-glutamine, 25 mM HEPES, 10% heat-inactivated fetal bovine serum with appropriate selection antibiotics. Assays were performed in media that was devoid of selection antibiotics. For profiling, 125 nL of peptides in DMSO (10 mM) were dispensed into Falcon® 384-well Optilux white/clear flat bottom TC-treated microtest microplate (Corning, cat. #353963) using Echo® 555. […] A suspension of 1 million cells/mL was dispensed at 20 μL/well in a 384-well plate to a density of 20,000 cells/well and pre-incubated with peptides at 37° C. for 1 h. Subsequently, 5 μL of TNF containing media (recombinant human TNFα; R&D Systems USA, cat. #210-TA-005/CF) or TNF-free media (for controls) was added to the wells. The final concentration of TNFα in the assay in 10 ng/mL. After o.n. incubation at 37° C. (16-18 h), 5 μL of supernatant was aspirated and transferred to a 384-well microplate (PerkinElmer, cat. #6007680) for measurement of secreted luciferase activity with 25 μL of QUANTI-Luc™ luminescence assay reagent (InvivoGen, cat. #rep-qlc1) in each well. The luminescence was measured in EnVision® Multimode Plate Reader (PerkinElmer). Dose response curves were analyzed using a 4-parameter logistic model to calculate IC50 values, reported in Table 2, using TIBCO® Spotfire® software employing appropriate Minimum and Maximum controls.
row,SMILES,IC50
1,CN1CC(=O)N[C@@H](CC(N)=O)C(=O)N[C@@H](Cc2ccc(O)cc2)C(=O)N[C@@H](Cc2c[nH]c3ccccc23)C(=O)N[C@@H](CO)C(=O)N[C@@H](Cc2ccc(O)cc2)C(=O)N[C@@H](Cc2ccc(O)cc2)C(=O)N(C)CC(=O)N[C@@H](Cc2c[nH]c3ccccc23)C(=O)N[C@H](C(=O)NCC(=O)NCCOCC(=O)N[C@@H](CCCCNC(=O)CCCC[C@@H]2SC[C@@H]3NC(=O)N[C@@H]32)C(N)=O)CSCC(=O)N[C@@H](Cc2ccccc2)C(=O)N[C@@H](Cc2ccc(O)cc2)C(=O)N[C@@H](CO)C(=O)N[C@@H](Cc2c[nH]c3ccccc23)C1=O [SEQ ID NO. 1] ({CH2CO}-FYSW[Sar]NYWSYY[Sar]WCG[AEA]K(Biotin)-NH2; thioether N-14),227 nM
2,"CCCC[C@@H]1NC(=O)[C@@H]2CC[C@@H](C2)NC(=O)[C@H]([C@@H](C)c2c[nH]c3c(OC)cccc23)NC(=O)CN(C)C(=O)[C@H](Cc2ccc(O)cc2)NC(=O)[C@H](Cc2ccc(C(=O)O)cc2F)NC(=O)[C@](C)(CO)NC(=O)[C@H](Cc2c[nH]c3c(Cl)cccc23)NC(=O)[C@H](Cc2ccncc2)NC(=O)[C@H](CC(N)=O)NC(=O)[C@H](CCC(=O)O)N(C)C(=O)[C@H](Cc2c[nH]c3ccccc23)NC(=O)[C@@H]2CNCCN2C(=O)[C@H](Cc2ccncc2)NC1=O [SEQ ID NO. 7] (cyclo([4Pal][Trp(7-Cl)][αMeS][Phe(2-F,4-COOH)]Y[Sar][Trp(βS-Me,7-OMe)][X1][Nle][4Pal][Pip(4-aza)]W[NMeE]N))",1.6 nM
3,"CCCC[C@@H]1NC(=O)[C@@H]2CC[C@@H](C2)NC(=O)[C@H]([C@@H](C)c2c[nH]c3c(OC)cccc23)NC(=O)CN(C)C(=O)[C@H](Cc2ccc(C(N)=O)cc2)NC(=O)[C@H](Cc2ccc(C(N)=O)cc2)NC(=O)[C@](C)(CO)NC(=O)[C@H](Cc2c[nH]c3c(C#N)cccc23)NC(=O)[C@H](Cc2ccc(C(=O)O)cc2)NC(=O)[C@H](CC(N)=O)NC(=O)CN([C@@H](C)CO)C(=O)[C@H](Cc2c[nH]c3ncccc23)NC(=O)[C@@H]2CC[C@@H](O)CN2C(=O)[C@H](Cc2ccncc2)NC1=O [SEQ ID NO. 23] (cyclo([4Pal][Pip(5R-OH)][Trp(7-aza)][X42]N[Phe(4-COOH)][Trp(7-CN)][αMeS][Phe(4-CONH2)][Phe(4-CONH2)][Sar][Trp(βS-Me,7-OMe)][X1][Nle]))",0.8 nM
4,"CCCC[C@@H]1NC(=O)[C@@H]2CC[C@@H](C2)NC(=O)[C@H]([C@@H](C)c2c[nH]c3c(OC)cccc23)NC(=O)CN(C)C(=O)[C@H](Cc2ccc(O)c(OC)c2)NC(=O)[C@H](Cc2ccc(C(=O)O)cc2)NC(=O)[C@](C)(CO)NC(=O)[C@H](Cc2c[nH]c3c(Cl)cccc23)NC(=O)[C@H](Cc2ccncc2)NC(=O)[C@H](CC(N)=O)NC(=O)[C@H](CCC(=O)O)N(C)C(=O)[C@H](Cc2c[nH]c3ccccc23)NC(=O)[C@@H]2CNCCN2C(=O)[C@H](Cc2ccncc2)NC1=O [SEQ ID NO. 24] (cyclo([4Pal][Trp(7-Cl)][αMeS][Phe(4-COOH)][Tyr(3-OMe)][Sar][Trp(βS-Me,7-OMe)][X1][Nle][4Pal][Pip(4-aza)]W[NMeE]N))",0.7 nM
5,"CCCC[C@@H]1NC(=O)[C@@H]2CC[C@@H](C2)NC(=O)[C@H]([C@@H](C)c2c[nH]c3c(OC)cccc23)NC(=O)CN(C)C(=O)[C@H](Cc2ccc(O)cc2)NC(=O)[C@H](Cc2cccc(C(=O)O)c2)NC(=O)[C@](C)(CO)NC(=O)[C@H](Cc2c[nH]c3c(Cl)cccc23)NC(=O)[C@H](Cc2ccncc2)NC(=O)[C@H](CC(N)=O)NC(=O)[C@H](CCC(=O)O)N(C)C(=O)[C@H](Cc2c[nH]c3ccccc23)NC(=O)[C@@H]2CNCCN2C(=O)[C@H](Cc2ccncc2)NC1=O [SEQ ID NO. 28] (cyclo([4Pal][Trp(7-Cl)][αMeS][Phe(3-COOH)]Y[Sar][Trp(βS-Me,7-OMe)][X1][Nle][4Pal][Pip(4-aza)]W[NMeE]N))",1.6 nM
6,"CCCC[C@@H]1NC(=O)[C@@H]2CC[C@@H](C2)NC(=O)[C@H]([C@@H](C)c2c[nH]c3c(OC)cccc23)NC(=O)CN(C)C(=O)[C@H](Cc2ccc(C(N)=O)cc2)NC(=O)[C@H](Cc2ccc(C(N)=O)cc2)NC(=O)[C@](C)(CO)NC(=O)[C@H](Cc2c[nH]c3c(C#N)cccc23)NC(=O)[C@H](Cc2ccc(C(=O)O)cc2)NC(=O)[C@H](CC(N)=O)NC(=O)[C@H]2C[C@H](N(C)C)CN2C(=O)[C@H](Cc2cn(CC(=O)O)c3ncccc23)NC(=O)[C@@H]2CC[C@@H](O)CN2C(=O)[C@H](Cc2ccncc2)NC1=O [SEQ ID NO. 32] (cyclo([4Pal][Pip(5R-OH)][Trp(7-aza,1-CH2COOH)][dPro(trans-4-NMe2)]N[Phe(4-COOH)][Trp(7-CN)][αMeS][Phe(4-CONH2)][Phe(4-CONH2)][Sar][Trp(βS-Me,7-OMe)][X1][Nle]))",0.6 nM
7,C[C@@H](c1c[nH]c2ccccc12)[C@@H]1NC(=O)[C@H](CO)NC(=O)[C@H](Cc2ccc(O)cc2)NC(=O)[C@H](CCCCN)NC(=O)CSC[C@@H](C(N)=O)NC(=O)[C@H](Cc2c[nH]c3ccccc23)NC(=O)CN(C)C(=O)[C@H](Cc2ccc(O)cc2)NC(=O)[C@H](Cc2ccc(C(=O)O)cc2)NC(=O)[C@](C)(CO)NC(=O)[C@H](Cc2c[nH]c3ccccc23)NC(=O)[C@H](Cc2ccncc2)NC(=O)[C@H](CC(N)=O)NC(=O)[C@H](C)N(C)C1=O [SEQ ID NO. 36] ({CH2CO}-KYS[Trp(βS-Me)][NMeA]N[4Pal]W[αMeS][Phe(4-COOH)]Y[Sar]WC-NH2; thioether N-14),2.2 nM
8,"COc1cccc2c([C@H](C)[C@@H]3NC(=O)CN(C)C(=O)[C@H](Cc4ccc(O)cc4)NC(=O)[C@H](Cc4ccc(C(=O)O)cc4)NC(=O)[C@](C)(CO)NC(=O)[C@H](Cc4c[nH]c5c(Cl)cccc45)NC(=O)[C@H](Cc4ccncc4)NC(=O)[C@H](CC(N)=O)NC(=O)[C@H](CCC(=O)O)N(C)C(=O)[C@H](Cc4c[nH]c5ccccc45)NC(=O)[C@@H]4CCCCN4C(=O)[C@H](Cc4ccncc4)NC(=O)[C@H](CCCC[N+](C)(C)C)NC(=O)[C@@H]4CC[C@@H](C4)NC3=O)c[nH]c12 [SEQ ID NO. 47] (cyclo([4Pal][Pip]W[NMeE]N[4Pal][Trp(7-Cl)][αMeS][Phe(4-COOH)]Y[Sar][Trp(βS-Me,7-OMe)][X1][Lys(Me3)]))",1.9 nM
9,"CCCC[C@@H]1NC(=O)CSC[C@@H](C(N)=O)NC(=O)[C@H]([C@@H](C)c2c[nH]c3c(OC)cccc23)NC(=O)CN(C)C(=O)[C@H](c2cccc(O)c2)NC(=O)[C@H](Cc2ccc(C(N)=O)cc2)NC(=O)[C@](C)(CO)NC(=O)[C@H](Cc2c[nH]c3c(Cl)cccc23)NC(=O)[C@H](Cc2ccc(C(=O)O)cc2)NC(=O)[C@H](CC(N)=O)NC(=O)[C@H](CCC(=O)O)N(C)C(=O)[C@H](Cc2cn(CC(=O)O)c3ccccc23)NC(=O)[C@@H]2CNCCN2C(=O)[C@H](Cc2ccncc2)NC1=O [SEQ ID NO. 52] ({CH2CO}-[Nle][4Pal][Pip(4-aza)][Trp(1-CH2COOH)][NMeE]N[Phe(4-COOH)][Trp(7-Cl)][αMeS][Phe(4-CONH2)][X66][Sar][Trp(βS-Me,7-OMe)]C-NH2; thioether N-14)",3.9 nM
10,"CCCCC[C@@H]1NC(=O)[C@@H]2CC[C@@H](C2)NC(=O)[C@H]([C@@H](C)c2c[nH]c3c(OC)cccc23)NC(=O)CN(C)C(=O)[C@H](Cc2ccc(C(N)=O)cc2)NC(=O)[C@H](Cc2ccc(C(N)=O)cc2)NC(=O)[C@](C)(CO)NC(=O)[C@H](Cc2c[nH]c3c(C#N)cccc23)NC(=O)[C@H](Cc2ccc(C(=O)O)cc2)NC(=O)[C@H](CC(N)=O)NC(=O)[C@H]2C[C@H](O)CN2C(=O)[C@H](Cc2c[nH]c3ccccc23)NC(=O)[C@H](CC(=O)O)NC(=O)[C@H]([C@@H](C)c2ccncc2)NC1=O [SEQ ID NO. 55] (cyclo([Ahp(2)][4Pal(3S-Me)]DW[dHyp]N[Phe(4-COOH)][Trp(7-CN)][αMeS][Phe(4-CONH2)][Phe(4-CONH2)][Sar][Trp(βS-Me,7-OMe)][X1]))",1.3 nM
